US4990498A, “2- and 8-azido(2'-5')oligoadenylates and antiviral uses thereof” (Temple University-of the Commonwealth System of Higher …, priority 1988, dated 1991)

Assays:
[1] = tested on: 2-5A binding proteins from L929 cells (believed to be forms of RNase L); test: Photoaffinity labelling / covalent cross-linking of 2-5A binding proteins in interferon-treated L929 cell extracts (SDS-PAGE, autoradiography); set-up: species or system murine; conditions: for UV exposure time for maximal photo-crosslinking: 254 nm, 0° C.; for molecular weight of protein(s) specifically photolabelled / cross-linked: L929 cell extracts; for molecular weight of protein(s) specifically photolabelled / cross-linked / number of proteins photolabelled / cross-linked: 60 s UV; for number of proteins photolabelled / cross-linked: interferon-treated L929 cell extracts
Experimental: FIG. 3A is an autoradiogram following SDS-PAGE of interferon-treated L929 cell extracts incubated with [gamma-^32 P]2-azido-p3 A3 at 1×10^-6 M in the absence (lane 1) or presence of p3A3 at 1×10^-5 M and 1×10^-4 M (lanes 2 and 3, respectively).The samples were UV-irradiated for 60 seconds at 0° C. prior to electrophoresis. Photolabelled proteins were detected by autoradiography. Molecular weight standards are indicated.
FIG. 4A is an autoradiogram following SDS-PAGE of interferon treated L929 cell extracts incubated with [alpha-^32 P]8-azido-p3 A3 at 1×10^-6 M in the absence (lanes 1 and 2) or presence of the following: p3 A3 at 1×10^-4 M (lane 3); p3 A3 at 5×10^-4 M (lane 4); or 3'-5'A3 at 5×10^-4 M (lane 5). The samples were UV irradiated (lanes 2-6) for 60 seconds at 0° C. prior to electrophoresis. Under identical experimental conditions, the L929 cell extract was incubated with p3 A4 [^32 P]pCp at 1×10^-8 M (lane 6). Photolabelled proteins were detected by autoradiography.
Ten microliters of L929 cell extracts (100 micrograms protein/assay) were combined with 10 microliters of a buffer (140 mM NaCl, 35 mM Tris-HCl, pH 7.5) and were incubated in the presence of 1×10^-6 M [gamma-^32 p]2-azido -p3 A3 (0.9 microCi/nmol) or 1×10^-6 M [alpha-^32 p]8-azido -p3 A3 (0.9 microCi/nmol) or 1×10^-9 M p3 A4 [^32 P]pCp (3 mCi/nmol) in a 30 microliter final volume. The samples, after incubation in microcentrifuge tubes at 0° C. for 90 minutes, were transferred into ice-mold porcelain spot plates and photolysed for 60 seconds using a 254 nm UVG-11 Mineralight lamp (Ultraviolet Products, Inc.) at a distance of 2 cm (1.0 J/m^2). Sixty microliters of a reductive, protein-solubilizing mixture (15.4 mg/ml dithiothreitol, 25% w/v sucrose, 2.5% sodium dodecylsulfate, 25 mM TrisHCl, pH 8.0, 0.0025% pyronine Y) were added to the samples. Photo-incorporation of the ^32 P-labeled 2-azido-p3 A3 and 8-azido-p3 A3 into the L929 protein was determined by SDS-PAGE (Lamelli, Nature (London) 227:680-685 (1970)). The SDS-PAGE gels were stained with Coomassie blue, dried and subject to autoradiography at -70° C. with X-Omat film (Kodak).

RNase L [2] = test: rRNA cleavage assay: activation of RNase L in L929 cell extracts; assay type: biochemical, murine; conditions: for final concentration at which RNase L is activated to degrade rRNA to specific cleavage products / concentration dependence of rRNA degradation / potency in rRNA degradation relative to authentic p3 A3: L929 cell extracts; for final concentration at which RNase L is activated to degrade rRNA to specific cleavage products: "as low as"; for concentration dependence of rRNA degradation / potency in rRNA degradation relative to authentic p3 A3 / biological activity (RNase L binding and activation) relative to authentic 2-5A: in words
Experimental: FIG. 2 represents a rRNA cleavage assay with 2-azido-p3 A3 and 8-azido-p3 A3 L929 cell extracts were incubated in the absence (lane 4) or presence of p3 A3 (lane 1), 2-azido-p3 A3 (lane 2), or 8-azido-p3 A3 (lane 3) at 1 x 10^-8 M final concentrations. The positions of 28S and 18S rRNA, and the positions of RNase L specific cleavage products ("SCP"), are indicated.
Activation of RNase L by the compounds of the invention was also measured in a ribosomal RNA cleavage assay using L929 cell extracts. The extracts were prepared in glycerol buffer in 15 microliters final volume as described by Kariko et al., Biochem. Biophys. Res. Commun. 128:695-698 (1985).

RNase L [3] = test: Radiobinding assay: competition with p3 A4 [^32 P]pCp for binding to RNase L in L929 cell extracts; set-up: species or system murine; conditions: in words
Experimental: RNase L was obtained from L929 cells by the following procedure. The L929 cells were maintained in monolayer culture in Dulbecco's modified Eagle medium supplemented with 5% bovine serum. Monolayers were tested with 200 units/ml of mouse interferon for 20 hours. Cell extracts of the L929 cells were prepared by collecting the cells by trypsinization, washing them once with phosphate-buffered saline and lysing the cells in NP40 buffer according to the method of Silverman, et al., Eur. J. Biochem. 124:131-138 (1982).
The ability of 8-azido-p3 A3 to compete with p3 A4 -[^32 P]pCp for binding to RNase L in the L929 cell extracts was compared to p3 A3 using radiobinding assays (50 micrograms of protein/assay) according to the method of Knight et al., Methods Enzymol. 79:216-227 (1981). […] 8-Azido-p3 A3 (FIG. 1A, solid circle data points) binds to RNase L with an IC50 of 2×10^-9 M, which is equivalent to the IC50 of authentic p3 A3 (FIG. 1A, solid triangle data points).

RNase L [4] = test: rRNA cleavage assay with photolabelled RNase L/8-azido-p3 A3 complex; assay type: biochemical, murine; conditions: 1×10^-6 M 8-azido-p3 A3, 60 s UV 254 nm; in words
Experimental: Ten microliters of L929 cell extract (100 microgram protein/assay) were combined with ten microliters buffer (140 mM NaCl, 35 mM Tris-HCl, pH 7.5) and were incubated in the presence of 1×10^-6 M 8-azido-p3 A3 in a 30 microliter final volume. The sample was transferred to ice-cold porcelain spot plates and photolysed for 60 second using a 254 nm UVG-11 Mineralight lamp at a distance of 2 cm (1.0 J/m^2) to photolabel the RNase L/8-azido-p3 A3 complex. A ribosomal RNA cleavage assay was performed as described above, but using the photolabelled complex.

RNase L [5] = test: Core-cellulose assay: activation of partially purified RNase L to hydrolyze poly(U)[^32 P]pCp; assay type: biochemical, murine; conditions: in words
From the text: The recently developed core cellulose assay of Silverman, Anal. Biochem. 144:450-460 (1985), which involves the immobilization and partial purification of RNase L on 2-5A core-cellulose, was used to measure the ability of 8-azido-p3 A3 to activate RNase L. For this purpose, poly(U)[^32 P]pCp was synthesized from poly(U) using T4 RNA ligase, as described by Silverman. 8-Azido-p3 A3 (solid circle data

“5'-0-triphosphoryl-(2-azidoadenylyl)(2'-5')2-azidoadenylyl(2'5')2-azidoadenosine [2-azido-p3 A3]” was tested, and the “size of photolabelled protein” value ([1]; 1×10^-6 M [gamma-^32 P]2-azido-p3 A3, 60 s UV, protein a) was 185,000 dalton, the “UV exposure time for maximal photo-crosslinking” value [1] was 60 s and the “molecular weight of protein(s) specifically photolabelled / cross-linked” value [1] was 185,000. The “number of proteins photolabelled / cross-linked” value [1] was “one”, the “final concentration at which RNase L is activated to degrade rRNA to specific cleavage products” value (RNase L [2]) was 10^-9 M and the “concentration dependence of rRNA degradation” value (RNase L [2]) was “concentration dependent”. The “potency in rRNA degradation relative to authentic p3 A3” value (RNase L [2]) was “as potent as authentic p3 A3” and the “biological activity (RNase L binding and activation) relative to authentic 2-5A” value (RNase L [2]) was “almost identical to that of authentic 2-5A”.

In the case of “5'-0-triphosphoryl-(8-azidoadenylyl)(2'-5')8-azidoadenylyl(2'-5')8-azidoadenosine [8-azido-p3 A3]”, the “UV exposure time for maximal photo-crosslinking” value [1] is reported as 60 s, the “molecular weight of protein(s) specifically photolabelled / cross-linked” value [1] is reported as 46,000-158,000 and the “number of proteins photolabelled / cross-linked” value [1] is reported as “six”. For the same substance, the “inhibition of p3 A4 [^32 P]pCp binding to RNase L” value (RNase L [3]) was “inhibited p3 A4 [^32 P]pCp binding to RNase L in a concentration dependent manner”, the “rRNA cleavage by RNase L after photolabelling” value (RNase L [4]) was “observed to cleave 18S and 28S rRNA to the same specific cleavage products characteristic of RNase L activation by 8-azido-p3 A3 without photoactivation” and the “final concentration at which RNase L is activated to degrade rRNA to specific cleavage products” value (RNase L [2]) was 10^-9 M. The “concentration dependence of rRNA degradation” value (RNase L [2]) was “concentration dependent”, the “potency in rRNA degradation relative to authentic p3 A3” value (RNase L [2]) was “as potent as authentic p3 A3” and the “biological activity (RNase L binding and activation) relative to authentic 2-5A” value (RNase L [2]) was “almost identical to that of authentic 2-5A”. For the same substance, the “potency in activating RNase L relative to authentic p3 A3” value (RNase L [5]) was “equipotent to authentic p3 A3”.
